Laboratory results reported in ChEMBL document CHEMBL1123275, “Synthesis and renal vasodilator activity of some dopamine agonist 1-aryl-2,3,4,5-tetrahydro-1H-3-benzazepine-7,8-diols: halogen and methyl analogues of fenoldopam” (J Med Chem, 1986).
Active and inactive are the calls of the source. The calls are words filed in the database; no cut-off is given here.

Key:
Rattus norvegicus [1] = species: Rattus norvegicus; assay: In vitro dose stimulating D-1 adenylate cyclase in rat caudate nuclei at 10 uM; type: functional
Rattus norvegicus [2] = species: Rattus norvegicus; assay: In vitro inhibition of dopamine stimulated production of [14C]cAMP from [14C]-ATP in homogenates of rat caudate at the concentration of 10 uM; type: functional
Canis familiaris [3] = species: Canis familiaris; assay: Maximum percent decrease in renal vascular resistance.; type: functional, Canis lupus familiaris
Canis familiaris [4] = assay: Renal vasodilator activity was determined in anesthetized dogs; type: functional; settings: Canis lupus familiaris
Canis familiaris [5] = species: Canis familiaris; assay: Effective dose against Iliac vascular resistance (IVR); type: functional; settings: Canis lupus familiaris
Rattus norvegicus [6] = species: Rattus norvegicus; assay: In vitro dose stimulating D-1 adenylate cyclase in rat caudate nuclei; type: functional, organism-based
Canis familiaris [7] = assay: Cardiovascular activity was determined in anesthetized dogs.(Mean arterial blood pressure); type: functional; settings: Canis lupus familiaris, Artery
Canis familiaris [8] = assay: Cardiovascular activity was determined in anesthetized dogs.(Heart rate ); type: functional; settings: Canis lupus familiaris
Rattus norvegicus [9] = species: Rattus norvegicus; assay: In vitro inhibition of dopamine stimulated production of [14C]cAMP from [14C]-ATP in homogenates of rat caudate at the concentration of 1 uM; type: functional
Rattus norvegicus [10] = species: Rattus norvegicus; assay: (§1) In vitro dose stimulating D-1 adenylate cyclase in rat caudate nuclei; No significant activity at 10 uM; type: functional
Rattus norvegicus [11] = species: Rattus norvegicus; assay: In vitro inhibition of dopamine stimulated production of [14C]cAMP from [14C]-ATP in homogenates of rat caudate; No significant activity at 10 uM; type: functional
Rattus norvegicus [12] = assay: Compound was tested for its CNS activity in vivo in SNx rats with 6-hydroxydopamine induced lesions after ip administration; type: functional, Central nervous system
Canis familiaris [13] = assay: cardiovascular activity was determined in anesthetized dogs.(Mean arterial blood pressure); type: functional; settings: Canis lupus familiaris
Canis familiaris [14] = assay: cardiovascular activity was determined in anesthetized dogs.(Heart rate ); type: functional; settings: Canis lupus familiaris
Rattus norvegicus [15] = assay: Compound was tested for its CNS activity in vivo in SNx rats with 6-hydroxydopamine induced lesions after ic administration; type: functional, Central nervous system
Rattus norvegicus [16] = assay: Compound was tested for its CNS activity in vivo by determining drug-induced rotation in rats with 6-hydroxydopamine induced lesions of the SNx rats after ip administration measured as dose-turns; 10-no significant activity; type: functional, organism-based; settings: Central nervous system
Canis familiaris [17] = assay: Renal vasodilator activity in anesthetized dogs; no significant activity at 1000 ug/kg/stat; type: functional, organism-based; settings: Canis lupus familiaris
Rattus norvegicus [18] = species: Rattus norvegicus; assay: In vitro inhibition of dopamine stimulated production of [14C]-cAMP from [14C]-ATP in homogenates of rat caudate; type: functional
Rattus norvegicus [19] = species: Rattus norvegicus; assay: as §1; type: functional; remark: listed apart in the source
Canis familiaris [20] = assay: Renal vasodilator activity in anesthetized dogs; I= no significant activity at 300 ug/kg/min; type: functional, organism-based; settings: Canis lupus familiaris
Rattus norvegicus [21] = species: Rattus norvegicus; assay: In vitro dose stimulating D-1 adenylate cyclase in rat caudate nuclei as % dopamine response at 10 uM; type: functional
Rattus norvegicus [22] = assay: Compound was tested for its CNS activity in vivo in SNx rats with 6-hydroxydopamine induced lesions after ip administration measured as dose-turns; 10-No significant activity; type: functional, organism-based; settings: Central nervous system

Structure (SMILES)	EC50 (Rattus norvegicus [6])	Decrease (Canis familiaris [3])	ED15 (Canis familiaris [4])	ED30 (Canis familiaris [5])	RD500 (Rattus norvegicus [12])	ED20 (Canis familiaris [13])	ED20 (Canis familiaris [14])	other results
Br.CN1CCc2c(cc(O)c(O)c2F)C(c2ccc(O)cc2)C1 (stereo unspecified)	–	–	–	–	–	–	–	Stimulation (Rattus norvegicus [1]): 36%; inhibition (Rattus norvegicus [2]): 55%
Br.Oc1cc2c(c(F)c1O)CCNCC2c1ccccc1 (stereo unspecified)	40 nM	36%	9 µg/kg	54 mg/kg	–	–	–	ED20 (Canis familiaris [7]): 54 mg/kg; ED20 (Canis familiaris [8]): 54 mg/kg; inhibition (Rattus norvegicus [9]): 31%; inhibition (Rattus norvegicus [2]): 17%
Cc1c(O)c(O)c(Cl)c2c1C(c1ccc(O)cc1)CNCC2 (stereo unspecified)	–	–	–	–	–	–	–	Stimulation (Rattus norvegicus [10]): inactive; inhibition (Rattus norvegicus [11]): inactive
Br.Oc1cc2c(c(Cl)c1O)CCNCC2c1ccccc1 (stereo unspecified)	–	39%	3.5 µg/kg	2.92 mg/kg	0.3 mg/kg	6.07 mg/kg	0.378 mg/kg	RD500 (Rattus norvegicus [15]): 0.22 ug rat-1
CN1CCc2cc(O)c(O)cc2C(c2ccccc2)C1.Cl (stereo unspecified)	–	–	–	–	0.1 mg/kg	–	–	Activity (Canis familiaris [17]): inactive; IC50 (Rattus norvegicus [18]): 630 nM; Stimulation (Rattus norvegicus [1]): 20%; RD500 (Rattus norvegicus [15]): 0.06 ug rat-1
Br.Oc1ccc(C2CNCCc3c(F)c(O)c(O)c(F)c32)cc1 (stereo unspecified)	–	–	–	–	–	–	–	EC50 (Rattus norvegicus [19]): Not Active; inhibition (Rattus norvegicus [11]): inactive
Br.Oc1cccc(C2CNCCc3c2cc(O)c(O)c3Cl)c1 (stereo unspecified)	–	49%	0.35 µg/kg	0.0119 mg/kg	–	2.12 mg/kg	0.36 mg/kg	RD500 (Rattus norvegicus [16]): inactive
Cc1c(O)c(O)c(Cl)c2c1CCNCC2c1ccc(O)cc1.Cl (stereo unspecified)	–	42%	30 µg/kg	6.09 mg/kg	–	6.09 mg/kg	6.09 mg/kg	Stimulation (Rattus norvegicus [10]): inactive; inhibition (Rattus norvegicus [2]): 29%
Oc1cc2c(cc1O)C(c1ccccc1)CNCC2 (stereo unspecified) [SKF-38393]	–	18%	35 µg/kg	0.735 mg/kg	0.7 mg/kg	1.72 mg/kg	1.05 mg/kg	RD500 (Rattus norvegicus [15]): 0.18 ug rat-1
NCCc1ccc(O)c(O)c1 [DOPAMINE]	–	43%	3.5 µg/kg	0.151 mg/kg	–	–	0.378 mg/kg	ED20 (Canis familiaris [7]): 0.378 mg/kg; RD500 (Rattus norvegicus [15]): 0.1 ug rat-1
Br.CN1CCc2c(cc(O)c(O)c2Br)C(c2ccccc2)C1 (stereo unspecified)	–	–	–	–	0.015 mg/kg	–	–	IC50 (Rattus norvegicus [18]): 320 nM; Stimulation (Rattus norvegicus [1]): 30%
CS(=O)(=O)O.Cc1c(O)c(O)cc2c1CCNCC2c1ccc(O)cc1 (stereo unspecified)	–	41%	2.8 µg/kg	6.06 mg/kg	–	6.06 mg/kg	6.06 mg/kg	Stimulation (Rattus norvegicus [1]): 30%; inhibition (Rattus norvegicus [2]): 50%
Br.Cc1c(O)c(O)cc2c1CCN(C)CC2c1ccccc1 (stereo unspecified)	–	–	–	–	0.05 mg/kg	–	–	IC50 (Rattus norvegicus [18]): 440 nM; Activity (Canis familiaris [20]): inactive; Stimulation (Rattus norvegicus [1]): 20%
CN1CCc2c(cc(O)c(O)c2Cl)C(c2ccccc2)C1.Cl (stereo unspecified)	–	–	–	–	0.03 mg/kg	–	–	IC50 (Rattus norvegicus [18]): 600 nM; Stimulation (Rattus norvegicus [1]): 30%
Br.Cc1c(O)c(O)cc2c1C(c1ccc(O)cc1)CNCC2 (stereo unspecified)	–	–	–	–	–	–	–	EC50 (Rattus norvegicus [19]): Not Active; inhibition (Rattus norvegicus [11]): inactive
Br.Oc1ccc(C2CNCCc3c2cc(O)c(O)c3I)cc1 (stereo unspecified)	–	41%	4.2 µg/kg	6.06 mg/kg	–	6.06 mg/kg	6.06 mg/kg	Stimulation (Rattus norvegicus [21]): 36%; inhibition (Rattus norvegicus [2]): 55%
Cc1c(O)c(O)c(C)c2c1CCNCC2c1ccc(O)cc1 (stereo unspecified)	–	–	–	–	–	–	–	Stimulation (Rattus norvegicus [10]): inactive; inhibition (Rattus norvegicus [11]): inactive
Br.Oc1ccc(C2CNCCc3cc(O)c(O)c(Cl)c32)cc1 (stereo unspecified)	–	–	–	–	–	–	–	EC50 (Rattus norvegicus [19]): Not Active; inhibition (Rattus norvegicus [11]): inactive
Oc1ccc(C2CNCCc3c2cc(O)c(O)c3C(F)(F)F)cc1 (stereo unspecified)	–	–	–	–	–	–	–	RD500 (Rattus norvegicus [16]): inactive

Continued, in another order:

EC50 (Rattus norvegicus [6])	Structure (SMILES)	Decrease (Canis familiaris [3])	ED15 (Canis familiaris [4])	ED30 (Canis familiaris [5])	RD500 (Rattus norvegicus [12])	ED20 (Canis familiaris [13])	ED20 (Canis familiaris [14])	other results
2600 nM	Cl.Oc1ccc(C2CNCCc3c(Cl)c(O)c(O)c(Cl)c32)cc1 (stereo unspecified)	41%	620 µg/kg	6.2 mg/kg	–	6.2 mg/kg	6.2 mg/kg	RD500 (Rattus norvegicus [16]): inactive
22000 nM	CN1CCc2c(cc(O)c(O)c2Cl)C(c2ccc(O)cc2)C1 (stereo unspecified)	–	–	–	–	–	–	IC50 (Rattus norvegicus [18]): 1400 nM
48 nM	CS(=O)(=O)O.Oc1ccc(C2CNCCc3c2cc(O)c(O)c3Cl)cc1 (stereo unspecified) [FENOLDOPAM MESYLATE]	59%	0.3 µg/kg	1.82 mg/kg	0.5 ug rat-1	1.82 mg/kg	1.82 mg/kg	RD500 (Rattus norvegicus [16]): inactive
1250 nM	Cl.Oc1c(O)c(Cl)c2c(c1Cl)CCNCC2c1ccccc1 (stereo unspecified)	59%	10 µg/kg	6.08 mg/kg	–	6.08 mg/kg	6.08 mg/kg	inhibition (Rattus norvegicus [11]): inactive
100 nM	Br.Cc1c(O)c(O)cc2c1CCNCC2c1ccccc1 (stereo unspecified)	–	–	–	1.28 mg/kg	–	–	–
200 nM	Br.Oc1ccc(C2CNCCc3c2cc(O)c(O)c3F)cc1 (stereo unspecified)	28%	0.83 µg/kg	6.06 mg/kg	–	6.06 mg/kg	0.00581 mg/kg	–
200 nM	Oc1ccc(C2CNCCc3cc(O)c(O)cc32)cc1 (stereo unspecified)	–	–	–	–	–	–	RD500 (Rattus norvegicus [22]): inactive
150 nM	Br.Oc1ccc(C2CNCCc3c2cc(O)c(O)c3Br)cc1 (stereo unspecified)	56%	5 µg/kg	0.07 mg/kg	–	30.4 mg/kg	30.4 mg/kg	RD500 (Rattus norvegicus [16]): inactive
100 nM	Br.Oc1cc2c(c(Br)c1O)CCNCC2c1ccccc1 (stereo unspecified)	42%	9 µg/kg	6.08 mg/kg	0.34 mg/kg	6.08 mg/kg	6.08 mg/kg	–
